± gives the expanded uncertainty stated by the source.
Experiment: refractive index (Na D-line) (dimensionless); xn = mol fraction of the nth substance listed
Conditions: 101 kPa, Liquid, Standard Abbe refractometry

Q: With `CNCCO` [2-(methylamino)ethanol] + O as the molecule, how does the refractive index (293.15 K, x1 = 0.0493) read?
A: 1.3559 ± 0.0004

Q: And the refractive index (293.15 K, x1 = 0.0657)?
A: 1.3625 ± 0.0004

Q: What about the refractive index (293.15 K, x1 = 0.1054) of the same molecule?
A: 1.3767 ± 0.0004

Q: What about the refractive index (293.15 K, x1 = 0.1987) of the same molecule?
A: 1.3997 ± 0.0005

Q: And the refractive index (293.15 K, x1 = 0.301)?
A: 1.4151 ± 0.0004

Q: And the refractive index (293.15 K, x1 = 0.3834)?
A: 1.4235 ± 0.0004

Q: And the refractive index (293.15 K, x1 = 0.5041)?
A: 1.4288 ± 0.0005

Q: And the refractive index (293.15 K, x1 = 0.6)?
A: 1.4324 ± 0.0005

Q: What about the refractive index (293.15 K, x1 = 0.6974) of the same molecule?
A: 1.4347 ± 0.0006

Q: And the refractive index (293.15 K, x1 = 0.8008)?
A: 1.4366 ± 0.0006

Q: And the refractive index (293.15 K, x1 = 0.9031)?
A: 1.4381 ± 0.0006

Q: What about the refractive index (293.15 K, x1 = 1) of the same molecule?
A: 1.4393 ± 0.0006

Q: And the refractive index (298.15 K, x1 = 0.0493)?
A: 1.3552 ± 0.0004

Q: And the refractive index (298.15 K, x1 = 0.0657)?
A: 1.3617 ± 0.0004

Q: And the refractive index (298.15 K, x1 = 0.1054)?
A: 1.3754 ± 0.0005

Q: And the refractive index (298.15 K, x1 = 0.1987)?
A: 1.3983 ± 0.0005

Q: And the refractive index (298.15 K, x1 = 0.301)?
A: 1.4137 ± 0.0005

Q: And the refractive index (298.15 K, x1 = 0.3834)?
A: 1.4218 ± 0.0006

Q: What about the refractive index (298.15 K, x1 = 0.5041) of the same molecule?
A: 1.4272 ± 0.0006

Q: What about the refractive index (298.15 K, x1 = 0.6) of the same molecule?
A: 1.4306 ± 0.0006

Q: And the refractive index (298.15 K, x1 = 0.6974)?
A: 1.4329 ± 0.0006

Q: And the refractive index (298.15 K, x1 = 0.8008)?
A: 1.4348 ± 0.0006

Q: What about the refractive index (298.15 K, x1 = 0.9031) of the same molecule?
A: 1.4363 ± 0.0006

Q: And the refractive index (298.15 K, x1 = 1)?
A: 1.4375 ± 0.0006

Q: And the refractive index (303.15 K, x1 = 0.0493)?
A: 1.3544 ± 0.0004

Q: What about the refractive index (303.15 K, x1 = 0.0657) of the same molecule?
A: 1.3608 ± 0.0005

Q: And the refractive index (303.15 K, x1 = 0.1054)?
A: 1.3744 ± 0.0005

Q: What about the refractive index (303.15 K, x1 = 0.1987) of the same molecule?
A: 1.3967 ± 0.0005

Q: And the refractive index (303.15 K, x1 = 0.301)?
A: 1.412 ± 0.0005

Q: And the refractive index (303.15 K, x1 = 0.3834)?
A: 1.4201 ± 0.0005

Q: And the refractive index (303.15 K, x1 = 0.5041)?
A: 1.4253 ± 0.0006

Q: And the refractive index (303.15 K, x1 = 0.6)?
A: 1.4289 ± 0.0006

Q: And the refractive index (303.15 K, x1 = 0.6974)?
A: 1.4311 ± 0.0006

Q: What about the refractive index (303.15 K, x1 = 0.8008) of the same molecule?
A: 1.433 ± 0.0006

Q: And the refractive index (303.15 K, x1 = 0.9031)?
A: 1.4344 ± 0.0006

Q: And the refractive index (303.15 K, x1 = 1)?
A: 1.4356 ± 0.0006

Q: What about the refractive index (308.15 K, x1 = 0.0493) of the same molecule?
A: 1.3536 ± 0.0005

Q: What about the refractive index (308.15 K, x1 = 0.0657) of the same molecule?
A: 1.3599 ± 0.0005

Q: And the refractive index (308.15 K, x1 = 0.1054)?
A: 1.3732 ± 0.0005

Q: What about the refractive index (308.15 K, x1 = 0.1987) of the same molecule?
A: 1.3956 ± 0.0005

Q: What about the refractive index (308.15 K, x1 = 0.301) of the same molecule?
A: 1.4105 ± 0.0005

Q: What about the refractive index (308.15 K, x1 = 0.3834) of the same molecule?
A: 1.4186 ± 0.0005

Q: And the refractive index (308.15 K, x1 = 0.5041)?
A: 1.4239 ± 0.0006

Q: What about the refractive index (308.15 K, x1 = 0.6) of the same molecule?
A: 1.4272 ± 0.0006

Q: And the refractive index (308.15 K, x1 = 0.6974)?
A: 1.4294 ± 0.0006

Q: What about the refractive index (308.15 K, x1 = 0.8008) of the same molecule?
A: 1.4313 ± 0.0006

Q: What about the refractive index (308.15 K, x1 = 0.9031) of the same molecule?
A: 1.4328 ± 0.0006

Q: What about the refractive index (308.15 K, x1 = 1) of the same molecule?
A: 1.4339 ± 0.0007

Q: And the refractive index (313.15 K, x1 = 0.0493)?
A: 1.3527 ± 0.0005

Q: What about the refractive index (313.15 K, x1 = 0.0657) of the same molecule?
A: 1.3589 ± 0.0005

Q: And the refractive index (313.15 K, x1 = 0.1054)?
A: 1.372 ± 0.0005

Q: What about the refractive index (313.15 K, x1 = 0.1987) of the same molecule?
A: 1.394 ± 0.0006

Q: What about the refractive index (313.15 K, x1 = 0.301) of the same molecule?
A: 1.4091 ± 0.0005

Q: What about the refractive index (313.15 K, x1 = 0.3834) of the same molecule?
A: 1.417 ± 0.0006

Q: What about the refractive index (313.15 K, x1 = 0.5041) of the same molecule?
A: 1.4221 ± 0.0006

Q: What about the refractive index (313.15 K, x1 = 0.6) of the same molecule?
A: 1.4254 ± 0.0006

Q: What about the refractive index (313.15 K, x1 = 0.6974) of the same molecule?
A: 1.4275 ± 0.0006

Q: And the refractive index (313.15 K, x1 = 0.8008)?
A: 1.4293 ± 0.0006

Q: And the refractive index (313.15 K, x1 = 0.9031)?
A: 1.4306 ± 0.0007

Q: What about the refractive index (313.15 K, x1 = 1) of the same molecule?
A: 1.4318 ± 0.0007

Q: What about the refractive index (318.15 K, x1 = 0.0493) of the same molecule?
A: 1.3517 ± 0.0005

Q: And the refractive index (318.15 K, x1 = 0.0657)?
A: 1.3579 ± 0.0005

Q: What about the refractive index (318.15 K, x1 = 0.1054) of the same molecule?
A: 1.3708 ± 0.0005

Q: What about the refractive index (318.15 K, x1 = 0.1987) of the same molecule?
A: 1.3921 ± 0.0005

Q: What about the refractive index (318.15 K, x1 = 0.301) of the same molecule?
A: 1.4074 ± 0.0006

Q: And the refractive index (318.15 K, x1 = 0.3834)?
A: 1.4151 ± 0.0006

Q: What about the refractive index (318.15 K, x1 = 0.5041) of the same molecule?
A: 1.4204 ± 0.0006

Q: And the refractive index (318.15 K, x1 = 0.6)?
A: 1.4238 ± 0.0006

Q: What about the refractive index (318.15 K, x1 = 0.6974) of the same molecule?
A: 1.4257 ± 0.0006

Q: And the refractive index (318.15 K, x1 = 0.8008)?
A: 1.4274 ± 0.0006

Q: What about the refractive index (318.15 K, x1 = 0.9031) of the same molecule?
A: 1.4288 ± 0.0006

Q: What about the refractive index (318.15 K, x1 = 1) of the same molecule?
A: 1.4298 ± 0.0007

Q: What about the refractive index (323.15 K, x1 = 0.0493) of the same molecule?
A: 1.3507 ± 0.0005

Q: And the refractive index (323.15 K, x1 = 0.0657)?
A: 1.3568 ± 0.0005

Q: What about the refractive index (323.15 K, x1 = 0.1054) of the same molecule?
A: 1.3696 ± 0.0007

Q: What about the refractive index (323.15 K, x1 = 0.1987) of the same molecule?
A: 1.3907 ± 0.0009

Q: What about the refractive index (323.15 K, x1 = 0.301) of the same molecule?
A: 1.4055 ± 0.0008

Q: What about the refractive index (323.15 K, x1 = 0.3834) of the same molecule?
A: 1.4134 ± 0.0008

Q: What about the refractive index (323.15 K, x1 = 0.5041) of the same molecule?
A: 1.4187 ± 0.0006

Q: What about the refractive index (323.15 K, x1 = 0.6) of the same molecule?
A: 1.422 ± 0.0007

Q: What about the refractive index (323.15 K, x1 = 0.6974) of the same molecule?
A: 1.4239 ± 0.0006

Q: And the refractive index (323.15 K, x1 = 0.8008)?
A: 1.4257 ± 0.0006

Q: And the refractive index (323.15 K, x1 = 0.9031)?
A: 1.4268 ± 0.0007

Q: And the refractive index (323.15 K, x1 = 1)?
A: 1.4278 ± 0.0007

Reference: the NIST ThermoML archive (doi:10.1021/je060457+)
